Holding throughout (assay): spectrophotometric GDH activity in […] cell homogenate
Holding throughout (assay type): biochemical

The target in experiment [1] is GDH (glutamate dehydrogenase, GLUD1) (Homo sapiens, UniProt P00367).
Experiment [2] concerns the target GDH (glutamate dehydrogenase, GLUD1) (Homo sapiens, UniProt P00367, H507Y).
Experiment [3] concerns the target GDH (glutamate dehydrogenase, GLUD1) (Homo sapiens, UniProt P00367, S498L).

Among the data in publication PMC5545170 (Pediatric diabetes, 2017) are IC50 values, retold here.

Broadly, the IC50 is the concentration at which inhibition is half-maximal. A high value points to weaker potency.

Chain of GDH (glutamate dehydrogenase, GLUD1) (Homo sapiens, UniProt P00367, H507Y) (P00367 54-558 H507Y): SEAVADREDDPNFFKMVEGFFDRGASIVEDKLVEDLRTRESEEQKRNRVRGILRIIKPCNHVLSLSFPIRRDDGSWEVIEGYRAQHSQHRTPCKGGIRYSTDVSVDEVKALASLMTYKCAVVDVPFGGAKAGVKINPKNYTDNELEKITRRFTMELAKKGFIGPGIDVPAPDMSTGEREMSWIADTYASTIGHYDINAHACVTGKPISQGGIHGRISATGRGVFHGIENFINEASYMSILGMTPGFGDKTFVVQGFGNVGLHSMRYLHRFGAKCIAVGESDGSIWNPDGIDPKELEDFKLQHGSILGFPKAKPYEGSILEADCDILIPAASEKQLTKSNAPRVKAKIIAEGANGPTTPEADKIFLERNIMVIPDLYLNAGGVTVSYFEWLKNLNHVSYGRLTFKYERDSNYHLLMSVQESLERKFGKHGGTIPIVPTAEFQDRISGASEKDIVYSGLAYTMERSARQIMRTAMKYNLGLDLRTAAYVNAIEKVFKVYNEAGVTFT
Chain of GDH (glutamate dehydrogenase, GLUD1) (Homo sapiens, UniProt P00367, S498L) (P00367 54-558 S498L): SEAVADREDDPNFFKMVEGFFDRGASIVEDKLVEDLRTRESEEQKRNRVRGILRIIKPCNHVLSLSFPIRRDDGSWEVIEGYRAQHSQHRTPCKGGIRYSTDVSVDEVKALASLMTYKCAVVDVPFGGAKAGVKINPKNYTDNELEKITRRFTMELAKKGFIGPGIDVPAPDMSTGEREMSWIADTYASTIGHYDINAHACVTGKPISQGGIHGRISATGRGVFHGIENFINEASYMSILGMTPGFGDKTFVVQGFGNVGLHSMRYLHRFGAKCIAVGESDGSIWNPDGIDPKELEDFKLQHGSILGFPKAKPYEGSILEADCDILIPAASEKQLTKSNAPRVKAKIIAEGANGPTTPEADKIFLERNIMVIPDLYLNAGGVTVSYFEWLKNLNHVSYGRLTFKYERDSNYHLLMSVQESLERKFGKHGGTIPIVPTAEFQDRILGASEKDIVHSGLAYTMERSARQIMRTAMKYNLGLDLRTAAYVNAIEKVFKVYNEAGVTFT
Chain of GDH (glutamate dehydrogenase, GLUD1) (Homo sapiens, UniProt P00367) (P00367 54-558): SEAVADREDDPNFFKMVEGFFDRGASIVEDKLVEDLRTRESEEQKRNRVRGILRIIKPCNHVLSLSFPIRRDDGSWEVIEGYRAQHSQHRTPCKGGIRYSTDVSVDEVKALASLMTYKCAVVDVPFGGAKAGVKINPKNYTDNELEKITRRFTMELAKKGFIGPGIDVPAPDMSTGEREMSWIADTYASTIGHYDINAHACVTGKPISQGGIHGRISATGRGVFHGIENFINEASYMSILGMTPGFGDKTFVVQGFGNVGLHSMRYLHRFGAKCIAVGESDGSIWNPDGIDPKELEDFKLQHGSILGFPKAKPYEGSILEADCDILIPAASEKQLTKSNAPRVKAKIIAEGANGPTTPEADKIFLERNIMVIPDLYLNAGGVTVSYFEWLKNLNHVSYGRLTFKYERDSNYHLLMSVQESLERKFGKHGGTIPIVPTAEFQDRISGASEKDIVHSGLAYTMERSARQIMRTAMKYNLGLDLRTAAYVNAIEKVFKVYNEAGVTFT

`Nc1nc2c(ncn2[C@@H]2O[C@H](COP(=O)(O)OP(=O)(O)OP(=O)(O)O)[C@@H](O)[C@H]2O)c(=O)[nH]1` [GTP]: the results for the IC50 in experiment [1], in experiment [2] and in experiment [3] were 48 nM, 314000 nM and 40700 nM, respectively.

In the case of `O=C(O[C@@H]1Cc2c(O)cc(O)cc2O[C@@H]1c1cc(O)c(O)c(O)c1)c1cc(O)c(O)c(O)c1` [EGCG], the figures for the half-maximal inhibitory concentration (IC50) in experiment [1], in experiment [2] and in experiment [3] were 1050 nM, 1020 nM and 1070 nM, respectively.
